Results published in ChEMBL document CHEMBL1201861, “Genomics of Drug Sensitity in Cancer screening data, Wellcome Trust Sanger Institute”.

Experiments:
Experiment in all cases: cells
[1] = system: CP50-MEL-B; format: functional, cell-based; details: Homo sapiens;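 further: growth inhibition of the human cell line, measured with a cell viability read-out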
Description: SANGER: Inhibition of human CP50-MEL-B cell growth in a cell viability assay.

[2] = system: CW-2; format: functional, cell-based, Homo sapiens; details: Homo sapiens, CW-2;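 further: growth inhibition of CW-2 cells, read out by a cell viability assay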
Description: SANGER: Inhibition of human CW-2 cell growth in a cell viability assay.

[3] = system: Calu-6; format: functional, cell-based, Homo sapiens; details: Homo sapiens, Calu-6;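 further: growth of human Calu-6 cells, read out by a cell viability assay, IC50 marking inhibition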
Description: SANGER: Inhibition of human Calu-6 cell growth in a cell viability assay.

[4] = system: EW-11; format: functional, cell-based, Homo sapiens; details: Homo sapiens, EW-11;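 further: growth inhibition of human EW-11 cells, measured with a cell viability assay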
Description: SANGER: Inhibition of human EW-11 cell growth in a cell viability assay.

[5] = system: GB-1; format: functional, cell-based, Homo sapiens; details: Homo sapiens, GB-1;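 further: growth of GB-1 cells judged by a viability assay, IC50 marks the concentration inhibiting growth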
Description: SANGER: Inhibition of human GB-1 cell growth in a cell viability assay.

[6] = system: GCIY; format: functional, cell-based, Homo sapiens; details: Homo sapiens, GCIY;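 further: growth inhibition of the human GCIY cell line, read out by a cell viability assay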
Description: SANGER: Inhibition of human GCIY cell growth in a cell viability assay.

[7] = system: GT3TKB; format: functional, cell-based, Homo sapiens; details: Homo sapiens, GT3TKB;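 further: growth inhibition of the cell line, read out with a cell viability assay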
Description: SANGER: Inhibition of human GT3TKB cell growth in a cell viability assay.

[8] = system: HDLM-2; format: functional, cell-based, Homo sapiens; details: Homo sapiens, HDLM-2;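 further: cell viability assay measuring suppression of HDLM-2 proliferation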
Description: SANGER: Inhibition of human HDLM-2 cell growth in a cell viability assay.

[9] = system: HOP-62; format: functional, cell-based, Homo sapiens; details: Homo sapiens, HOP-62;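 further: cell growth inhibition determined with a viability assay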
Description: SANGER: Inhibition of human HOP-62 cell growth in a cell viability assay.

[10] = system: HT; format: functional, cell-based, Homo sapiens; details: Homo sapiens, HT
Description: SANGER: Inhibition of human HT cell growth in a cell viability assay.

[11] = system: JVM-3; format: functional, cell-based, Homo sapiens; details: Homo sapiens, JVM-3;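 further: growth inhibition of human JVM-3 cells, read out with a cell viability assay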
Description: SANGER: Inhibition of human JVM-3 cell growth in a cell viability assay.

[12] = system: KARPAS-299; format: functional, cell-based, Homo sapiens; details: Homo sapiens, KARPAS-299
Description: SANGER: Inhibition of human KARPAS-299 cell growth in a cell viability assay.

[13] = system: KINGS-1; format: functional, cell-based, Homo sapiens; details: Homo sapiens, KINGS-1;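 further: cell viability assay measuring suppression of KINGS-1 cell growth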
Description: SANGER: Inhibition of human KINGS-1 cell growth in a cell viability assay.

[14] = system: KNS-81-FD; format: functional, cell-based, Homo sapiens; details: Homo sapiens, KNS-81-FD;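 further: growth inhibition of KNS-81-FD cells, read out with a cell viability assay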
Description: SANGER: Inhibition of human KNS-81-FD cell growth in a cell viability assay.

[15] = system: KY821; format: functional, cell-based, Homo sapiens; details: Homo sapiens, KY821;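 further: growth inhibition of human KY821 cells, read out by a cell viability assay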
Description: SANGER: Inhibition of human KY821 cell growth in a cell viability assay.

[16] = system: LB1047-RCC; format: functional, cell-based, Homo sapiens; details: Homo sapiens, LB1047-RCC;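 further: inhibition of cell growth, determined with a cell viability assay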
Description: SANGER: Inhibition of human LB1047-RCC cell growth in a cell viability assay.

[17] = system: LB2241-RCC; format: functional, cell-based, Homo sapiens; details: Homo sapiens, LB2241-RCC;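 further: cell viability assay measuring how strongly the cultured human renal carcinoma line is prevented from growing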
Description: SANGER: Inhibition of human LB2241-RCC cell growth in a cell viability assay.

[18] = system: LB2518-MEL; format: functional, cell-based; details: Homo sapiens;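 further: growth inhibition of human LB2518-MEL cells, measured with a cell viability assay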
Description: SANGER: Inhibition of human LB2518-MEL cell growth in a cell viability assay.

[19] = system: LC-2-ad; format: functional, cell-based, Homo sapiens; details: Homo sapiens, LC-2-ad;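 further: growth inhibition of human LC-2-ad cells, read out with a cell viability assay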
Description: SANGER: Inhibition of human LC-2-ad cell growth in a cell viability assay.

[20] = system: LS-123; format: functional, cell-based, Homo sapiens; details: Homo sapiens, LS-123
Description: SANGER: Inhibition of human LS-123 cell growth in a cell viability assay.

[21] = system: LU-134-A; format: functional, cell-based, Homo sapiens; details: Homo sapiens, LU-134-A
Description: SANGER: Inhibition of human LU-134-A cell growth in a cell viability assay.

[22] = system: MEG-01; format: functional, cell-based, Homo sapiens; details: Homo sapiens, MEG-01;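 further: growth inhibition of MEG-01 cells, read out by a cell viability assay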
Description: SANGER: Inhibition of human MEG-01 cell growth in a cell viability assay.

[23] = system: MHH-NB-11; format: functional, cell-based, Homo sapiens; details: Homo sapiens, MHH-NB-11;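 further: growth inhibition of human MHH-NB-11 cells, read out by a cell viability assay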
Description: SANGER: Inhibition of human MHH-NB-11 cell growth in a cell viability assay.

[24] = system: MHH-PREB-1; format: functional, cell-based, Homo sapiens; details: Homo sapiens, MHH-PREB-1;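 further: cell viability assay measuring inhibition of proliferation of human MHH-PREB-1 cells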
Description: SANGER: Inhibition of human MHH-PREB-1 cell growth in a cell viability assay.

[25] = system: MS-1; format: functional, cell-based, Homo sapiens; details: Homo sapiens, MS-1;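 further: growth inhibition of MS-1 cells, read out by cell viability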
Description: SANGER: Inhibition of human MS-1 cell growth in a cell viability assay.

[26] = system: MV4-11; format: functional, cell-based, Homo sapiens, MV-4-11; details: Homo sapiens, MV4-11;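 further: cell viability readout measuring growth inhibition of human MV-4-11 cells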
Description: SANGER: Inhibition of human MV-4-11 cell growth in a cell viability assay.

[27] = system: NB6; format: functional, cell-based, Homo sapiens; details: Homo sapiens, NB6;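 further: growth inhibition of NB6 cells, read out by a cell viability assay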
Description: SANGER: Inhibition of human NB6 cell growth in a cell viability assay.

[28] = system: NCI-H1299; format: functional, cell-based; details: Homo sapiens;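 further: growth inhibition of human NCI-H1299 cells, read out by a cell viability assay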
Description: SANGER: Inhibition of human NCI-H1299 cell growth in a cell viability assay.

[29] = system: NCI-H1355; format: functional, cell-based, Homo sapiens; details: Homo sapiens, NCI-H1355;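 further: growth inhibition of human NCI-H1355 cells, read out by a cell viability assay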
Description: SANGER: Inhibition of human NCI-H1355 cell growth in a cell viability assay.

[30] = system: NCI-H1395; format: functional, cell-based, Homo sapiens; details: Homo sapiens, NCI-H1395;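 further: cell viability assay read-out quantifying reduced proliferation of human NCI-H1395 cells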
Description: SANGER: Inhibition of human NCI-H1395 cell growth in a cell viability assay.

[31] = system: NCI-H209; format: functional, cell-based, Homo sapiens; details: Homo sapiens, NCI-H209;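 further: growth inhibition of human NCI-H209 cells, measured by a cell viability assay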
Description: SANGER: Inhibition of human NCI-H209 cell growth in a cell viability assay.

[32] = system: NCI-H747; format: functional, cell-based, Homo sapiens; details: Homo sapiens, NCI-H747;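 further: growth inhibition of human NCI-H747 cells, read out by a cell viability assay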
Description: SANGER: Inhibition of human NCI-H747 cell growth in a cell viability assay.

[33] = system: NTERA-2-cl-D1; format: functional, cell-based, Homo sapiens; details: Homo sapiens, NTERA-2-cl-D1;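 further: inhibition of cell growth, measured with a cell viability assay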
Description: SANGER: Inhibition of human NTERA-S-cl-D1 cell growth in a cell viability assay.

[34] = system: OCI-AML2; format: functional, cell-based, Homo sapiens; details: Homo sapiens, OCI-AML2;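 further: growth inhibition of OCI-AML2 cells, read out with a cell viability assay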
Description: SANGER: Inhibition of human OCI-AML2 cell growth in a cell viability assay.

[35] = system: OCUB-M; format: functional, cell-based; details: Homo sapiens;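 further: growth inhibition of the cancer cell line, read out through a cell viability assay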
Description: SANGER: Inhibition of human OCUB-M cell growth in a cell viability assay.

[36] = system: OS-RC-2; format: functional, cell-based, Homo sapiens; details: Homo sapiens, OS-RC-2;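 further: growth inhibition of human OS-RC-2 cells, measured by a cell viability assay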
Description: SANGER: Inhibition of human OS-RC-2 cell growth in a cell viability assay.

[37] = system: SK-MEL-2; format: functional, cell-based, Homo sapiens; details: Homo sapiens, SK-MEL-2;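 further: growth inhibition of human SK-MEL-2 cells measured with a cell viability assay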
Description: SANGER: Inhibition of human SK-MEL-2 cell growth in a cell viability assay.

[38] = system: SNB-75; format: functional, cell-based, Homo sapiens; details: Homo sapiens, SNB-75;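 further: cell viability assay measuring growth inhibition of human SNB-75 cells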
Description: SANGER: Inhibition of human SNB75 cell growth in a cell viability assay.

[39] = system: SW 954; format: functional, cell-based, Homo sapiens; details: Homo sapiens, SW 954;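 further: growth inhibition of SW954 human cancer cells, read out as cell viability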
Description: SANGER: Inhibition of human SW954 cell growth in a cell viability assay.

[40] = system: 8-MG-BA; format: functional, cell-based, Homo sapiens; details: Homo sapiens, 8-MG-BA;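 further: growth inhibition of 8-MG-BA cells, read out with a cell viability assay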
Description: SANGER: Inhibition of human 8-MG-BA cell growth in a cell viability assay.

[41] = system: A3-KAW; format: functional, cell-based, Homo sapiens; details: Homo sapiens, A3-KAW;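 further: growth inhibition of human A3-KAW cells, read out with a cell viability assay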
Description: SANGER: Inhibition of human A3-KAW cell growth in a cell viability assay.

[42] = system: A4-Fuk; format: functional, cell-based, Homo sapiens; details: Homo sapiens, A4-Fuk;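 further: growth inhibition of A4-Fuk cells, read out by a cell viability assay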
Description: SANGER: Inhibition of human A4-Fuk cell growth in a cell viability assay.

[43] = system: AU565; format: functional, cell-based; details: Homo sapiens;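 further: cell viability assay measuring growth inhibition of human AU565 cells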
Description: SANGER: Inhibition of human AU565 cell growth in a cell viability assay.

[44] = system: BB30-HNC; format: functional, cell-based, Homo sapiens; details: Homo sapiens, BB30-HNC;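 further: growth inhibition of the cultured cell line, read out by a cell viability assay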
Description: SANGER: Inhibition of human BB30-HNC cell growth in a cell viability assay.

[45] = system: BB65-RCC; format: functional, cell-based, Homo sapiens; details: Homo sapiens, BB65-RCC;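 further: growth inhibition of the cell line, measured with a cell viability assay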
Description: SANGER: Inhibition of human BB65-RCC cell growth in a cell viability assay.

[46] = system: BFTC-905; format: functional, cell-based; details: Homo sapiens
Description: SANGER: Inhibition of human BFTC-905 cell growth in a cell viability assay.

[47] = system: TE-10; format: functional, cell-based, Homo sapiens; details: Homo sapiens, TE-10;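 further: growth inhibition of TE-10 cells, measured by a cell viability assay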
Description: SANGER: Inhibition of human TE-10 cell growth in a cell viability assay.

[48] = system: TE-12; format: functional, cell-based, Homo sapiens; details: Homo sapiens, TE-12;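 further: growth inhibition of TE-12 cells, read out by a cell viability assay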
Description: SANGER: Inhibition of human TE-12 cell growth in a cell viability assay.

[49] = system: no-11; format: functional, cell-based, Homo sapiens; details: Homo sapiens;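 further: growth inhibition of human NO-11 cells, read out with a cell viability assay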
Description: SANGER: Inhibition of human no-11 cell growth in a cell viability assay.

[50] = system: COLO-668; format: functional, cell-based, Homo sapiens; details: Homo sapiens, COLO-668
Description: SANGER: Inhibition of human COLO-668 cell growth in a cell viability assay.

With `COC(=O)[C@H](CCSC)NC(=O)c1ccc(NC[C@@H](N)CS)cc1-c1ccccc1` the IC50 [1] was > 1020 nM, the IC50 [2] was > 1020 nM and the IC50 [3] was > 1020 nM. For the same compound, the IC50 [4] was > 1020 nM, the IC50 [5] was > 1020 nM and the IC50 [6] was > 1020 nM. For the same compound, the IC50 [7] was > 1020 nM, the IC50 [8] was > 1020 nM and the IC50 [9] was > 1020 nM. For the same compound, the IC50 [10] was > 1020 nM, the IC50 [11] was > 1020 nM and the IC50 [12] was > 1020 nM. The IC50 [13] was > 1020 nM, the IC50 [14] was > 1020 nM and the IC50 [15] was > 1020 nM. For the same compound, the IC50 [16] was > 1020 nM, the IC50 [17] was > 1020 nM and the IC50 [18] was > 1020 nM. The IC50 [19] was > 1020 nM, the IC50 [20] was > 1020 nM and the IC50 [21] was > 1020 nM. The IC50 [22] was > 1020 nM, the IC50 [23] was > 1020 nM and the IC50 [24] was > 1020 nM. The IC50 [25] was > 1020 nM, the IC50 [26] was > 1020 nM and the IC50 [27] was > 1020 nM. For the same compound, the IC50 [28] was > 1020 nM, the IC50 [29] was > 1020 nM and the IC50 [30] was > 1020 nM. For the same compound, the IC50 [31] was > 1020 nM, the IC50 [32] was > 1020 nM and the IC50 [33] was > 1020 nM. The IC50 [34] was > 1020 nM, the IC50 [35] was > 1020 nM and the IC50 [36] was > 1020 nM. The IC50 [37] was > 1020 nM, the IC50 [38] was > 1020 nM and the IC50 [39] was > 1020 nM. For the same compound, the IC50 [40] was > 1020 nM, the IC50 [41] was > 1020 nM and the IC50 [42] was > 1020 nM. The IC50 [43] was > 1020 nM, the IC50 [44] was > 1020 nM and the IC50 [45] was > 1020 nM. The IC50 [46] was > 1020 nM, the IC50 [47] was > 1020 nM and the IC50 [48] was > 1020 nM. For the same compound, the IC50 [49] was > 1020 nM and the IC50 [50] was > 1020 nM.
With `NC(=O)Nc1cc(-c2cccc(F)c2)sc1C(=O)N[C@H]1CCCNC1` [AZD-7762] the IC50 [1] was > 2000 nM, the IC50 [2] was > 2000 nM and the IC50 [3] was 1410 nM. It also gave an IC50 [4] of 563 nM, an IC50 [5] of 1380 nM and an IC50 [6] of 1390 nM. The IC50 [7] was 1490 nM, the IC50 [8] was 813 nM and the IC50 [9] was 726 nM. The IC50 [10] was 1870 nM, the IC50 [11] was 230 nM and the IC50 [12] was > 2000 nM. For the same compound, the IC50 [13] was 1420 nM, the IC50 [14] was > 2000 nM and the IC50 [15] was 214 nM. The IC50 [16] was 60.2 nM, the IC50 [17] was 61 nM and the IC50 [18] was > 2000 nM. For the same compound, the IC50 [19] was 565 nM, the IC50 [20] was 1810 nM and the IC50 [21] was 657 nM. For the same compound, the IC50 [22] was 346 nM, the IC50 [23] was 390 nM and the IC50 [24] was 34.4 nM. For the same compound, the IC50 [25] was > 2000 nM, the IC50 [26] was < 7.81 nM and the IC50 [27] was 985 nM. It also gave an IC50 [28] of 556 nM, an IC50 [29] of 679 nM and an IC50 [30] of 198 nM. For the same compound, the IC50 [31] was 324 nM, the IC50 [32] was > 2000 nM and the IC50 [33] was > 2000 nM. The IC50 [34] was 1270 nM, the IC50 [35] was > 2000 nM and the IC50 [36] was 620 nM. The IC50 [37] was 100 nM, the IC50 [38] was 1200 nM and the IC50 [39] was 401 nM. For the same compound, the IC50 [40] was 258 nM, the IC50 [41] was 88.1 nM and the IC50 [42] was 74.9 nM. For the same compound, the IC50 [43] was 824 nM, the IC50 [44] was 315 nM and the IC50 [45] was 271 nM. For the same compound, the IC50 [46] was 985 nM, the IC50 [47] was 910 nM and the IC50 [48] was > 2000 nM. For the same compound, the IC50 [49] was 1490 nM and the IC50 [50] was > 2000 nM.
